# Activity calls are given as the source filed them. No cut-off for these calls is given here.
# Assays:
# C2C12 [1] = assay: Cytotoxicity against mouse C2C12 cells assessed as reduction in cell viability at 0.78 to 100 uM measured after 24 hrs by MTT assay; assay type: toxicity, cell-based; details: c2c12, 24 h, dose 0.78-100 µM
# [2] = Upregulation of utrophin expression in mouse C2C12 cells assessed as fold increase at 800 nM measured after 72 hrs by In-cell ELISA method; assay type: functional
# C2C12 [3] = assay: Upregulation of utrophin mRNA expression in mouse C2C12 cells at 800 nM measured after 72 hrs by qRT-PCR analysis; assay type: functional, cell-based
# C2C12 [4] = assay: Upregulation of utrophin mRNA expression in mouse C2C12 level measured after 72 hrs by qRT-PCR analysis; assay type: functional, cell-based; details: dose 200-800 nM
# C2C12 [5] = assay: Upregulation of utrophin protein expression in mouse C2C12 level measured after 72 hrs by Westernblot analysis; assay type: functional, cell-based; details: dose 200-800 nM
# [6] = Upregulation of utrophin protein expression in mouse C2C12 cells assessed as fold increase at 800 nM measured after 72 hrs by Western blot analysis; assay type: functional
# [7] = Upregulation of utrophin mRNA expression in mouse C2C12 cells assessed as fold increase at 800 nM measured after 72 hrs by qRT-PCR analysis; assay type: functional
# [8] = Upregulation of utrophin protein expression in human patient derived KM1328 cells assessed as fold increase at 800 nM measured after 72 hrs by Western blot analysis; assay type: functional
# [9] = Binding affinity to recombinant AhR/ARNT (unknown origin) assessed as dissociation constant incubated for 30 mins by fluorescence quenching analysis; set-up: species or system Homo sapiens
# [10] = Aqueous solubility of the compound in DMSO measured after 2 hrs by turbidity assay; assay type: physicochemical
# [11] = Metabolic stability in rat liver microsomes assessed as intrinsic clearance at 5 uM preincubated for 5 mins followed by NADPH addition and measured upto 60 mins by LC-MS analysis; assay type: ADME, Microsome; details: time < 65 min, read-out: CLH
# [12] = Stability in human plasma assessed as remaining compound at 50 uM measured after 2 hrs by LC-MS and HPLC analysis; assay type: ADME, cell-free; details: read-out: Stability
# [13] = Stability in human serum assessed as remaining compound at 50 uM measured after 2 hrs by LC-MS and HPLC analysis; assay type: ADME, cell-free; details: read-out: Stability
# [14] = Lipophilicity, logD of the compound in cyclohexane/PBS at pH 7.4 measured after 1 hr by LC-MS and HPLC analysis; assay type: physicochemical; details: pH 7.4, 1 h
# [15] = Lipophilicity, logD of the compound in octanol/PBS at pH 7.4 measured after 1 hr by LC-MS and HPLC analysis; assay type: physicochemical
# Homo sapiens = organism: Homo sapiens; assay: Binding affinity to recombinant AhR/ARNT (unknown origin) assessed as binding constant incubated for 30 mins by fluorescence quenching analysis; details: filed as antagonist
# [16] = biological target: T1, Aryl hydrocarbon receptor (Mus musculus, UniProt P30561); assay: Induction of AhR nuclear translocation in mouse C2C12 cells at 800 nM measured after 2 hrs by Hoechst 33258 staining based fluorescence microscopy analysis; assay type: cell-based; details: c2c12, 2 h, 0.8 µM
# T1 sequence (P30561 whole entry): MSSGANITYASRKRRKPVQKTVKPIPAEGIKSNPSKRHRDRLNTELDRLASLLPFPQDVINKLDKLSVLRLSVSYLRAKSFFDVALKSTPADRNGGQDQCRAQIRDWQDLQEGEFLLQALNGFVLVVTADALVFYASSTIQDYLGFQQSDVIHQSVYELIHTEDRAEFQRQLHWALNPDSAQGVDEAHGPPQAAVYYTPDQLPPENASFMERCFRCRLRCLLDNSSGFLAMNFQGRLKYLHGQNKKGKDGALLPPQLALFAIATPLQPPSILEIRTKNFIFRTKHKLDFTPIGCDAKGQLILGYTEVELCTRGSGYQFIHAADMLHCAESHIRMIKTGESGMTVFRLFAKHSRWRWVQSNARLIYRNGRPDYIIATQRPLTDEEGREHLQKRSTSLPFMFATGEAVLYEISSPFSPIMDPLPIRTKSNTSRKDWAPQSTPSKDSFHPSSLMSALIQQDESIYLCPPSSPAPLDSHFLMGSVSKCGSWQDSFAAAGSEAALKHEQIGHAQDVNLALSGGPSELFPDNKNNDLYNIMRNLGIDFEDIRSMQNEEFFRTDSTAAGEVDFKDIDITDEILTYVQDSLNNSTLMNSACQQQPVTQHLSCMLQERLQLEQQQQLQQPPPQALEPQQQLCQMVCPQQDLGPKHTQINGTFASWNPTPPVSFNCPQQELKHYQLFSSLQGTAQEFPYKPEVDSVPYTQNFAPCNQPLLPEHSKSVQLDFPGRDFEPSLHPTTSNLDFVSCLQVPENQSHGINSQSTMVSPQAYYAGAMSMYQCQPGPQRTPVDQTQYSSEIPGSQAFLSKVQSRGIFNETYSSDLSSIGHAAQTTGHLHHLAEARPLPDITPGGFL
# [17] = biological target: T1, Aryl hydrocarbon receptor; assay: Antagonist activity at AhR in mouse C2C12 cells assessed as reduction in ITE induced AhR nuclear translocation at 800 nM measured after 2 hrs by Hoechst 33258 staining based fluorescence microscopy analysis; assay type: cell-based; details: c2c12, 2 h, 0.8 µM
# [18] = biological target: T1, Aryl hydrocarbon receptor; assay: Antagonist activity at AhR in mouse C2C12 cells assessed as reversal of TCDD inhibited myogenesis by measuring fold change at 800 nM measured after 7 days by Hoechst 33258 staining based fluorescence microscopy analysis; assay type: cell-based; details: c2c12, 168 h, 0.8 µM, time 7 day
# [19] = Upregulation of utrophin expression in mouse C2C12 cells assessed as fold increase at 3 uM measured after 72 hrs by In-cell ELISA method; assay type: functional
# [20] = Upregulation of utrophin protein expression in human patient derived KM1328 cells assessed as fold increase at 3 uM measured after 72 hrs by […]; assay type: functional
# [21] = biological target: T1, Aryl hydrocarbon receptor; assay: Antagonist activity at AhR in mouse C2C12 cells assessed as reduction in ITE induced AhR nuclear translocation measured after 2 hrs by Hoechst 33258 staining based fluorescence microscopy analysis; assay type: cell-based; details: c2c12, 2 h
smiles,measurement,setting,value
CS(=O)(=O)c1ccc2nc(NCc3ccc(F)cc3)ncc2c1,Activity,C2C12 [1],Toxic
same,fold change (FC),[2],2.14
same,Activity,C2C12 [3],Active
same,Activity,C2C12 [4],Dose-Dependent Effect
same,Activity,C2C12 [5],Dose-Dependent Effect
same,fold change (FC),[6],2.72
same,fold change (FC),[7],2.11
same,fold change (FC),[8],2.3
same,Kd,[9],41.7 nM
same,solubility kinetic at 2 h,[10],30 µM
same,microsomal CLint at 5 µM,[11],6.66 µL/min/mg
same,"remaining at 2 h, 50 µM",[12],69.2%
same,"remaining at 2 h, 50 µM",[13],70%
same,logD,[14],0.2
same,logD at 1 h,[15],2.46
same,Ka,Homo sapiens,24 µM⁻¹
same,Activity,[16],Not Active
same,Activity,[17],Active
same,fold change (FC),[18],2
O=C(/C=C/C=C/c1ccc2c(c1)OCO2)N1CCCCC1 [PIPERINE],fold change (FC),[19],1.3
same,fold change (FC),[20],0.99
same,Activity,[21],Not Active
